Reference: paper PMC10648349, “Aromatic Diboronic Acids as Effective KPC/AmpC Inhibitors” (Molecules, 2023)
Converted amounts (≈) assume the structure as drawn. Read-outs that look alike come from different tables or passages of the source.

How the values were obtained:
[1] = tested on: C. krusei ATCC 6258; test: antifungal activity (disc-diffusion, MIC, MFC); type: cell-based, Candida krusei; details: Pichia kudriavzevii, ATCC6258; fluconazole by Etest
Description: (§1) Direct antimicrobial activity against Gram-negative and Gram-positive bacterial strains, as well as against yeast, was examined as previously described by the disc-diffusion test, the MIC determination assay, the MBC (for bacteria), and the MFC (for yeasts) determination tests. All the above-mentioned tests were performed according to EUCAST [71, 72] and CLSI [73, 74, 75, 76, 77] recommendations. The following reference agents were used: nitrofurantoin (for Gram-negative rods), linezolid (for Gram-positive bacteria), and fluconazole (in the case of fungi). The new aromatic diboronic acids were dissolved in DMSO (Sigma, St. Louis, MO, USA). In the disc-diffusion test, the concentration of new agents was 0.4 mg per disc.

[2] = tested on: S. aureus ATCC 6538P; test: direct antimicrobial activity (disc-diffusion, MIC, MBC); type: cell-based; details: Staphylococcus aureus, ATCC6538P; for zone of inhibition at 0.4 mg/disc: 0.4 mg per disc, 9 mm disc (linezolid 0.03 mg, 6 mm disc), - no zone, read-out: Diameter of inhibition zone
Description: as §1

[3] = tested on: E. faecium ATCC 6057; test: as above; type: cell-based; details: Enterococcus faecium, ATCC6057
Description: as §1

[4] = tested on: S. aureus ATCC 43300 MRSA; test: as above; type: cell-based; details: Staphylococcus aureus; for zone of inhibition at 0.4 mg/disc: 0.4 mg per disc, 9 mm disc (linezolid 0.03 mg, 6 mm disc), - no zone, read-out: Diameter of inhibition zone
Description: as §1

[5] = tested on: E. faecalis ATCC 29212; test: as above; type: cell-based; details: Enterococcus faecalis, ATCC29212
Description: as §1

[6] = tested on: S. epidermidis ATCC 12228; test: as above; type: cell-based; details: Staphylococcus epidermidis, ATCC12228
Description: as §1

[7] = tested on: C. albicans ATCC 90028; test: antifungal activity (disc-diffusion, MIC, MFC); type: cell-based; details: Candida albicans, ATCC90028; fluconazole by Etest
Description: as §1

[8] = tested on: C. tropicalis IBA 171; test: antifungal activity (disc-diffusion, MIC, MFC); type: cell-based; details: Candida tropicalis, IBA171; fluconazole by Etest
Description: as §1

[9] = tested on: C. tropicalis ATCC 750; test: antifungal activity (disc-diffusion, MIC, MFC); type: cell-based; details: Candida tropicalis, ATCC750; fluconazole by Etest
Description: as §1

[10] = tested on: S. cerevisiae ATCC 9763; test: antifungal activity (disc-diffusion, MIC, MFC); type: cell-based; details: Saccharomyces cerevisiae, ATCC9763; fluconazole by Etest
Description: as §1

[11] = tested on: C. parapsilosis ATCC 22019; test: antifungal activity (disc-diffusion, MIC, MFC); type: cell-based, Candida parapsilosis; details: Lodderomyces parapsilosis, ATCC22019; fluconazole by Etest
Description: as §1

[12] = tested on: B. subtilis ATCC 6633; test: direct antimicrobial activity (disc-diffusion); type: cell-based; details: Bacillus subtilis, ATCC6633; 0.4 mg per disc, 9 mm disc (linezolid 0.03 mg, 6 mm disc); - no zone; read-out: Diameter of inhibition zone
Description: as §1

[13] = tested on: C. guilliermondii IBA 155; test: antifungal activity (disc-diffusion, MIC, MFC); type: cell-based, Candida guilliermondii; details: Meyerozyma guilliermondii, IBA155; fluconazole by Etest
Description: as §1

[14] = MTT-based viability assay; type: cell-based; details: human, 72 h, read-out: Viability of MRC-5 cells (% of viable cells ± SD)
Description: MRC-5 human fibroblasts (ECACC) were cultured in MEME, Minimum Essential Medium Eagle (Merck) supplemented with 10% fetal bovine serum (Merck), 2 mM l-glutamine, antibiotics (100 U/mL penicillin, 100 μg/mL streptomycin, Merck) and 1% non-essential amino acids (Merck). Cells were grown in 75 cm^2 cell culture flasks (Sarstedt) in a humidified atmosphere of CO2/air (5/95%) at 37 °C. MTT-based viability assay was conducted as described previously. Optical densities were measured at 570 nm using a BioTek microplate reader. All measurements were carried out in three replicates, and the results were expressed as a percent of viable cells versus control cells.

[15] = tested on: K. pneumoniae ATCC BAA 1705 KPC-2-positive; test: combination disc test CDT-KPC; type: cell-based; details: Klebsiella pneumoniae, BAA1705; agent 0.3 mg per disc; read-out: Diameter of inhibition zone, MEM-10 disc with agent
[16] = tested on: E. coli 77 CMY-2-positive; test: combination disc test CDT-AmpC; type: cell-based; details: Escherichia coli; agent 0.3 mg per disc; read-out: Diameter of inhibition zone, CAZ-30 disc with agent
[17] = tested on: P. aeruginosa MUW 700 cAmpC-positive; test: combination disc test CDT-AmpC; type: cell-based; details: Pseudomonas aeruginosa; agent 0.3 mg per disc; read-out: Diameter of inhibition zone, CAZ-30 disc with agent
[18] = tested on: K. pneumoniae ATCC 700603 ESBL-positive; test: combination disc test CDT-ESBL; type: cell-based; details: Klebsiella pneumoniae, ATCC700603; agent 0.3 mg per disc; read-out: Diameter of inhibition zone, CAZ-30 disc with agent
[19] = tested on: P. aeruginosa MUW 700 AmpC(+); test: MIC of tested agent alone, microdilution; type: cell-based; details: Pseudomonas aeruginosa; read-out: MIC of agent alone
Description: (§2) To examine the ability of tested agents to inhibit various carbapenemases and AmpC-enzymes, their synergy with antibiotics against β-lactamase-producing strains was assessed by checkerboard microdilution assay, with slight modification. Checkerboards were prepared in microtiter plates, with seven two-fold dilutions of β-lactams (1–64 mg/L) in the rows and three two-fold dilutions of tested agents and PBA (4–16 mg/L) in the columns. Tested agents’ concentrations were limited to the concentrations at which the newest commercially available BLIs (vaborbactam, relebactam, and avibactam) are used in susceptibility testing. Plates were inoculated and incubated as in the MIC microdilution assay. Parallel, MICs of tested agents and PBA alone were determined by the microdilution assay. Following the incubation, antibiotic MICs in the presence of each agent’s concentration were determined. Moreover, for the first well without growth found in each checkerboard row and column along the growth/non-growth interface, the fractional inhibitory concentration index (FICI) was calculated using the formula below:FICI = [(MIC of antibiotic in combination)/(MIC of antibiotic alone)] + [(MIC of the tested agent in combination)/(MIC of tested agent alone)].

[20] = tested on: E. coli 77 CMY-2(+); test: MIC of tested agent alone, microdilution; type: cell-based; details: Escherichia coli; read-out: MIC of agent alone
Description: as §2

[21] = tested on: K. pneumoniae 83 KPC-3(+), CTX-M-3(+); test: MIC of tested agent alone, microdilution; type: cell-based; details: Klebsiella pneumoniae; read-out: MIC of agent alone
Description: as §2

[22] = tested on: K. pneumoniae 81 KPC-3(+); test: MIC of tested agent alone, microdilution; type: cell-based; details: Klebsiella pneumoniae; read-out: MIC of agent alone
Description: as §2

[23] = tested on: E. coli 76 KPC-2(+); test: MIC of tested agent alone, microdilution; type: cell-based; details: Escherichia coli; read-out: MIC of agent alone
Description: as §2

[24] = tested on: K. pneumoniae ATCC BAA-1705 KPC-2(+); test: MIC of tested agent alone, microdilution; type: cell-based; details: Klebsiella pneumoniae, ATCCBAA1705; read-out: MIC of agent alone
Description: as §2

Question: For `OB(O)c1cc(C(F)(F)F)c(B(O)O)cc1C(F)(F)F` [1h], which MIC [1] is on record?
Answer: > 400 µg/mL

Question: What about the MIC [2] of the same compound?
Answer: 400 µg/mL (≈ 1330 µM)

Question: What about the zone of inhibition at 0.4 mg/disc [2] of the same compound?
Answer: 13 mm

Question: What about the MIC [3] of the same compound?
Answer: 400 µg/mL (≈ 1330 µM)

Question: What about the MIC [4] of the same compound?
Answer: 400 µg/mL (≈ 1330 µM)

Question: And the zone of inhibition at 0.4 mg/disc [4]?
Answer: 14 mm

Question: What about the MIC [5] of the same compound?
Answer: 400 µg/mL (≈ 1330 µM)

Question: And the MIC [6]?
Answer: 200 µg/mL (≈ 663 µM)

Question: And the MIC [7]?
Answer: > 400 µg/mL

Question: And the MIC [8]?
Answer: > 400 µg/mL

Question: And the MIC [9]?
Answer: > 400 µg/mL

Question: And the MIC [10]?
Answer: > 400 µg/mL

Question: And the MIC [11]?
Answer: > 400 µg/mL

Question: What about the zone of inhibition at 0.4 mg/disc [12] of the same compound?
Answer: 12 mm

Question: And the MIC [13]?
Answer: > 400 µg/mL

Question: And the viability at 72 h, 12.5 mg/L ([14]; MRC-5 human fibroblasts)?
Answer: 101 ± 4.3%

Question: What about the viability at 72 h, 25 mg/L ([14]; MRC-5 human fibroblasts) of the same compound?
Answer: 104 ± 5%

Question: And the viability at 72 h, 50 mg/L ([14]; MRC-5 human fibroblasts)?
Answer: 98.8 ± 3.2%

Question: For `C[Si](C)(C)c1cc(B(O)O)c([Si](C)(C)C)cc1B(O)O` [1k], which MIC [1] is on record?
Answer: > 100 µg/mL

Question: What about the MIC [2] of the same compound?
Answer: 100 µg/mL (≈ 322 µM)

Question: What about the MIC [3] of the same compound?
Answer: 100 µg/mL (≈ 322 µM)

Question: What about the MIC [4] of the same compound?
Answer: 100 µg/mL (≈ 322 µM)

Question: And the MIC [5]?
Answer: > 100 µg/mL

Question: And the MIC [6]?
Answer: 100 µg/mL (≈ 322 µM)

Question: And the MIC [7]?
Answer: > 100 µg/mL

Question: And the MIC [8]?
Answer: > 100 µg/mL

Question: What about the MIC [9] of the same compound?
Answer: > 100 µg/mL

Question: What about the MIC [10] of the same compound?
Answer: > 100 µg/mL

Question: And the MIC [11]?
Answer: > 100 µg/mL

Question: What about the zone of inhibition at 0.4 mg/disc [12] of the same compound?
Answer: 11 mm

Question: And the MIC [13]?
Answer: > 100 µg/mL

Question: What about the viability at 72 h, 12.5 mg/L [14] of the same compound?
Answer: 84.3 ± 0.9%

Question: What about the viability at 72 h, 25 mg/L [14] of the same compound?
Answer: 74.2 ± 3.5%

Question: What about the viability at 72 h, 50 mg/L [14] of the same compound?
Answer: 28.9 ± 1%

Question: For `OB(O)c1ccc(Br)c(B(O)O)c1` [2f], which zone of inhibition at 300 µg/disc [15] is on record?
Answer: 6 mm

Question: And the zone of inhibition at 300 µg/disc [16]?
Answer: 19 mm

Question: What about the MIC [1] of the same compound?
Answer: 400 µg/mL (≈ 1640 µM)

Question: What about the MBC [2] of the same compound?
Answer: 400 µg/mL (≈ 1640 µM)

Question: And the MIC [2]?
Answer: 50 µg/mL (≈ 204 µM)

Question: And the zone of inhibition at 0.4 mg/disc [2]?
Answer: 14 mm

Question: And the MIC [3]?
Answer: 200 µg/mL (≈ 818 µM)

Question: And the MIC [4]?
Answer: 200 µg/mL (≈ 818 µM)

Question: And the zone of inhibition at 0.4 mg/disc [4]?
Answer: 13 mm

Question: And the MIC [5]?
Answer: > 400 µg/mL

Question: What about the MIC [6] of the same compound?
Answer: 100 µg/mL (≈ 409 µM)

Question: What about the zone of inhibition at 0.4 mg/disc ([6]; 0.4 mg per disc, 9 mm disc (linezolid 0.03 mg, 6 mm disc), - no zone, read-out: Diameter of inhibition zone) of the same compound?
Answer: 25 mm

Question: What about the MIC [7] of the same compound?
Answer: > 400 µg/mL

Question: And the MIC [8]?
Answer: > 400 µg/mL

Question: What about the MIC [9] of the same compound?
Answer: > 400 µg/mL

Question: What about the MIC [10] of the same compound?
Answer: 200 µg/mL (≈ 818 µM)

Question: And the MIC [11]?
Answer: > 400 µg/mL

Question: What about the zone of inhibition at 300 µg/disc [17] of the same compound?
Answer: 21 mm

Question: What about the zone of inhibition at 300 µg/disc [18] of the same compound?
Answer: 15 mm

Question: What about the zone of inhibition at 0.4 mg/disc [12] of the same compound?
Answer: 22 mm

Question: What about the MIC [13] of the same compound?
Answer: > 400 µg/mL

Question: And the viability at 72 h, 12.5 mg/L ([14]; MRC-5 human fibroblasts)?
Answer: 103 ± 8.8%

Question: What about the viability at 72 h, 25 mg/L ([14]; MRC-5 human fibroblasts) of the same compound?
Answer: 92.1 ± 0.9%

Question: And the viability at 72 h, 50 mg/L ([14]; MRC-5 human fibroblasts)?
Answer: 76.2 ± 0.7%

Question: And the MIC [19]?
Answer: > 400 µg/mL

Question: What about the MIC [20] of the same compound?
Answer: > 400 µg/mL

Question: And the MIC [21]?
Answer: > 400 µg/mL

Question: What about the MIC [22] of the same compound?
Answer: > 400 µg/mL

Question: And the MIC [23]?
Answer: > 400 µg/mL

Question: And the MIC [24]?
Answer: > 400 µg/mL
